In patent US10450358 (dated 2019):

Assays:
[1] = Pichia pastoris GS115 expression culture supernatant (methanol induction), purified protein; details: 28° C., up to 72 hours
[2] = Pichia pastoris GS115 expression culture supernatant (BMMY medium, methanol induction), purified protein; details: 28° C., up to 72 hours

| Sequence | not cleaved [1] | cleaved bond [2] |
| --- | --- | --- |
| AIAEPAMIAECKTRTEVFEISRRLIDPTNANFLVWPPCVEVQRCSGCCNNRNVQCRPTQVQLRPVQVRKIEIVRKKPIFKKATVTLEDHLACKCEAVAAARPVA | SDS-PAGE result showed that PDGF-M2 is a single band |  |
| TIAEPAMIAECKTRTEVFEISRRLIDPTNANFLVWPPCVEVQRCSGCCNNRNVQCRPTQVQLRPVQVRKIEIVRKKPIFKKATVTLEDHLACKCEAVAAARPVA | only single band could be detected after the two mutants were reduced (WB) |  |
| TIAEPAMIAECKTRTEVFEISRRLIDRTNANFLVWPPCVEVQRCSGCCNNRNVQCRPTQVQLRPVQVRKIEIVRKKPIFKKATVTLEDHLACKCETVAAARPVT |  | Arg32-Thr33 |
